Data taken from publication PMC4839570, “Novel Anthra[1,2-c][1,2,5]Thiadiazole-6,11-Diones as Promising Anticancer Lead Compounds: Biological Evaluation, Characterization & Molecular Targets Determination” (PLoS ONE, 2016).
≈ marks a conversion by molar mass, not a printed value. Read-outs that look alike come from different tables or passages of the source.

Columns and labels:
[1] = test system: human intestinal Caco-2 cells; experiment: Caco-2 permeability; type: in vitro ADME
Text: (§1) We tested both the absorptive (from the apical to basolateral compartments; A→BL) and secretory (from the basolateral to apical compartments; BL→A) permeabilities of our compound. We determined the amounts of compound transported at the specified time points and calculated the cumulative fractions [F (cum)] transported with respect to time according to the following equation [43]: F(cum)=∑^[CR(tk)−fCR(tk−1)].VR/CD.VD Where C is the concentration (μM), V is the volume (mL) of the receiver (R) or donor (D), tk is time point k, and f is the sample replacement factor calculated as f=(1−Vs/VR) , where VS is the volume of the sample (mL).
(§2) We determined the permeability coefficients as follows: Papp=(ΔF(cum)/Δt).(1/A).VD Where (ΔF(cum)/Δt) is the slope of the graph of F(cum) versus time (s), A is the area of the filter (cm^2), and VD is the volume of the donor compartment (mL).
(§3) We determined the active transport by calculating the uptake ratios and the intestinal efflux by calculating the efflux ratios using the following equations [8]: Uptake ratio=Papp(A→BL)/Papp(BL→A) Efflux ratio=Papp(BL→A)/Papp(A→BL) Where Papp(A→BL) is the absorptive permeability coefficient, and Papp(BL→A) is the secretory permeability coefficient.
(§4) The transport of our compounds through the Caco-2 cells was tested according to Hubatsch et al., 2007 [8]. Briefly, Caco-2 cells were seeded at a density of 2.6 × 10^5 cells/cm^2 onto Corning Transwell® polyester membrane inserts (1.2 cm^2 membrane diameter, 0.4 μm pore size, product #3460) in 12-well tissue culture plates and cultured in Dulbecco’s modified Eagle’s medium with high glucose (4500 mg/liter glucose) and L-glutamine (without pyruvate) supplemented with 10% FBS, 1% non-essential amino acids and 1% penicillin/streptomycin. Cells were incubated for at least 21 days at the specified conditions with the change of medium every two days. The TEER was measured using Millicell® ERS device for each insert after every change of medium to monitor the development of the cells monolayer. Cell monolayers with TEER values less than 300 Ω.cm^2 at the end of the maintenance period were not suitable for the experiment and discarded. The integrity of the cell monolayers were further confirmed by testing the phenol red permeability through the cells. The transport experiments were started by replacing the incubation culture media with the transport buffers with or without the tested compounds, the transport was tested in both directions (apical to basolateral and basolateral to apical). We used Hank’s balanced salt solution without phenol red as the transport medium buffered with either methanesulfonic acid (pH = 6.5) as the transport buffer in the apical compartment or buffered with HEPES and NaHCO3 (pH = 7.4) as the transport buffer in the basolateral compartment. NSC745885 was dissolved in the transport buffers with the aid of 1% DMSO to get final concentrations between 4–5 μM. Samples from the receiver compartments were withdrawn at different time intervals (0 min, 30 min, 45 min, 60 min, 75 min, 90 min, 120 min) and the amounts of transported drug were determined using the HPLC. After the transport experiments, the TEER was checked for every cell monolayer to assure that the monolayers were not compromised from the effect of the tested drug. The apparent permeabilities were calculated as mentioned in the previous section.

Caco-2 permeability = type: in vitro ADME, human; conditions: human, Caco-2
Text: as §1, §2, §3, §4

OVCAR-3 = conditions: five-dose
MGH-U1 cells = test system: MGH-U1 cells; design: method as in PMID 25431950; conditions: cited from earlier work
MGH-U1R cell line = test system: MGH-U1R cell line; design: method as in PMID 25431950; conditions: MGH-U1R; cited from earlier work
SN12C = experiment: NCI-60 cytotoxicity screen; type: cell-based; conditions: for GI50 / CC50: Homo sapiens; for CC50: read-out: LC50 (the source's name)
[2] = test system: Mycobacterium tuberculosis H37Rv; experiment: Antimycobacterial susceptibility, BACTEC MGIT 960 SIRE; type: cell-based
[3] = Fig 7, read-out: mean log10 of the GI50 values (converted)

Row | SMILES | Permeability ranking [1] | Uptake ratio ([1]; Papp(A→BL)/Papp(BL→A)) | Papp A→B at 120 min (Caco-2 permeability; 4–5 μM, apical pH 6.5, basolateral pH 7.4, read-out: Absorptive permeability Papp(A→BL)) [×10⁻⁶ cm/s] | Papp B→A at 120 min (Caco-2 permeability; 4–5 μM, apical pH 6.5, basolateral pH 7.4, read-out: Secretory permeability Papp(BL→A)) [×10⁻⁶ cm/s] | efflux ratio at 120 min (Caco-2 permeability; Papp(BL→A)/Papp(A→BL)) | TGI (OVCAR-3) [µM] | concentration that inhibited the non-resistant cells (MGH-U1 cells) [µM] | concentration that completely suppressed growth of the resistant cell line (MGH-U1R cell line) [µM] | GI50 (SN12C; [3]) [nM] | GI50 (SN12C; five-dose, read-out: GI50) [nM] | CC50 (SN12C; five-dose) [µM] | TGI (SN12C; five-dose) [µM] | Effect on M. tuberculosis H37Rv ([2]; 1.25 μg/mL) | Effect on M. tuberculosis H37Rv ([2]; 2.5 μg/mL) | Effect on M. tuberculosis H37Rv ([2]; 5 μg/mL) | Effect on M. tuberculosis H37Rv ([2]; 7.5 μg/mL) | Effect on M. tuberculosis H37Rv ([2]; 10 μg/mL) | Effect on M. tuberculosis H37Rv ([2]; 15 μg/mL) | Effect on M. tuberculosis H37Rv ([2]; 20 μg/mL) | MIC ([2]; Mycobacterium tuberculosis, 336 h, H37Rv, 14 days) [µg/mL]
1 | O=C1c2ccccc2C(=O)c2c1ccc1nsnc21 [NSC745885, anthra[1,2-c][1,2,5]thiadiazole-6,11-dione] | High; completely absorbed | 0.898 | 31.8 | 35.4 | 1.11 | 2.46 | 2.5 | 2.5 | 1780 | 1330 | 7.56 | 3.17 | – | – | – | – | – | – | – | –
2 | O=C1c2ccccc2C(=O)c2c1cc(Cl)c1nsnc21 [NSC757963] | – | – | – | – | – | 3.23 | – | – | 2290 | 3270 | 36.1 | 13.1 | Growth | Growth | Growth | Growth | Inhibition | Inhibition | Inhibition | 10 (≈ 33.3 µM)
